Test results: paper PMC7079562 (Bioorganic & Medicinal Chemistry, 2016)

Molecular target: SARS-CoV 3CL^pro (Severe acute respiratory syndrome coronavirus, UniProt P0C6X7)
Assay type: biochemical

SMILES	Inhibitory activity against SARS 3CLpro (in words)
CC1=NN(c2cccc(C(=O)O)c2)C(=O)/C1=C\c1ccc(-c2ccccc2)o1 [Compound 3l, 3-(3-Methyl-5-oxo-4-((5-phenylfuran-2-yl)methylene)-4,5-dihydro-1H-pyrazol-1-yl)benzoic acid]	unable to inhibit
O=C1/C(=C\c2ccc(-c3ccccc3)o2)C(c2ccccc2)=NN1c1ccccc1 [Compound 3j, 2,5-Diphenyl-4-((5-phenylfuran-2-yl)methylene)-2,4-dihydro-3H-pyrazol-3-one]	inactive
CC1=NN(c2ccccc2)C(=O)/C1=C\c1ccc(-c2cc(Cl)ccc2C(=O)O)o1 [Compound 3e, 4-Chloro-2-(5-((3-methyl-5-oxo-1-phenyl-1,5-dihydro-4H-pyrazol-4-ylidene)methyl)furan-2-yl)benzoic acid]	unable to inhibit
